Columns and labels:
AOC2 = AOC2 (Homo sapiens (Human), UniProt O75106); test: AOC2 biochemical assay (Amplex Red); settings: read-out: AOC2 IC50
Description: An aliquot of 5 μL of the compound dilution is added to a 96 well plate (flat bottom F, black, GREINER bio-one, #655900) in a DMSO concentration of 2%. […] Cells are cultured for 3 days in EMEM culture medium containing 10% FCS (#04-00-1A, Biological Industries). After washing twice with ice cold PBS, cells are lysed by mechanic homogenation and cleared supernatants are shock frozen in liquid nitrogen and stored at -80° C. […] An Aliquot of 45 μL is added to the compound dilution and incubated for 30 min at 37° C. The enzymatic reaction is started with the addition of 50 μL of Amplex® Red reaction mix (final assay concentration: 100 mM sodiumphosphate, 120 μM Amplex® Red reagent (#A22177 Molecular Probes), 1.5 U/mL Horseradish Peroxidase (#P8375 Sigma-Aldrich), 2 mM phenylethylamine (#[…] Sigma-Aldrich), 0.05% Pluronic F-127 (#P3000MP Sigma-Aldrich), pH 7.4, 37° C.). The turnover per time of the substrate is determined directly with a fluorescence reader (Ex 540 nm/Em 590 nm) like Envision 2104 Multilabel Reader (PERKIN ELMER) for 60 min.

human AOC3 enzyme = human AOC3 enzyme (Homo sapiens (Human), UniProt Q16853); test: AOC3 biochemical assay (MAO-Glo); settings: read-out: AOC3 IC50
Chain of human AOC3 enzyme (Q16853 whole entry): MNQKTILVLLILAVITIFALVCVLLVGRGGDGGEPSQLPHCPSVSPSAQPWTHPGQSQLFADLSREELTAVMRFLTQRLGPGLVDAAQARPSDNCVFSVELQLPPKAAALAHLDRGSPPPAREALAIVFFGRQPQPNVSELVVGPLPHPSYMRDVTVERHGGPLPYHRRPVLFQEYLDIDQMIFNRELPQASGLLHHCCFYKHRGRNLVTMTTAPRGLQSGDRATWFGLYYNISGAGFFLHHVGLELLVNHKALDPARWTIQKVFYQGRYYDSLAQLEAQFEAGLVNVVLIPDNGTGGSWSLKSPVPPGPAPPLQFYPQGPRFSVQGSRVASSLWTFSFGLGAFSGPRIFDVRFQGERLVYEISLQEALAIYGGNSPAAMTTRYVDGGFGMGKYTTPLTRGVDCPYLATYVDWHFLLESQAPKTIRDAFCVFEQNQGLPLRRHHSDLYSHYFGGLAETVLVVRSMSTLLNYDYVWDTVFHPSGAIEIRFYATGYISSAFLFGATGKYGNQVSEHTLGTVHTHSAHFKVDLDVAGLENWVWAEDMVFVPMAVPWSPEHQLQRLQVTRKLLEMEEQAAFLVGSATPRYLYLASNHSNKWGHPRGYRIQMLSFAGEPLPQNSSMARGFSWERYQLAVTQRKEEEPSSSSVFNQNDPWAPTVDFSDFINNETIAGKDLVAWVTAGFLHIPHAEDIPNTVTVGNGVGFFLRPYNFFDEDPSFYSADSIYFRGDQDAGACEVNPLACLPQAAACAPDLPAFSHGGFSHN
Text: The MAO-Glo™ Assay (commercially available from PROMEGA, #V1402) provides a sensitive method for the measurement of monoamine oxidase (MAO) activity (Valley, M. P. et al., 2006, Anal. Biochem. 359: 238-246) from a variety of tissues, biofluids or recombinant expressed or purified enzymes. As substrate a derivate of the beetle luciferin ((4S)-4,5-dihydro-2-(6-hydroxybenzothiazolyl)-4-thiazole-carboxylic acid) is used, which is oxidized at a primary amine moiety. After a spontaneous elimination and a catalyzed esterase reaction, the turnover of the luciferine by the luciferase is recorded as a signal of AOC3 activity.
An aliquot of 3 μL of the compound dilution is added to a 384 well plate (Optiplate, PS, flat bottom, white, PERKIN ELMER, #6007290) with a final DMSO concentration of 6.6%. Recombinant CHO cells, overexpressing the human (1500 cells/well), mouse (1000 cells/well) or rat (500 cells/well) AOC3 enzyme are diluted in reaction buffer and added in a volume of 15 μL to the wells. After incubation for 20 minutes at 37° C., 2 μL of MAO substrate (dissolved in DMSO at 16 mM, adjusted to assay concentration in reaction buffer to a final assay concentration of 20 μM) is added and further incubated for 60 minutes at 37° C. The turnover of the substrate is determined by the addition of 20 μL of the detection-mix which was generated by the addition of reconstitution buffer with esterase (PROMEGA, #V1402) to the luciferine detection reagent (PROMEGA, #V1402). After an incubation period of 20 minutes, the luminescent signal is measured with Envision 2104 Multilabel Reader (PERKIN ELMER).

AOC1 = AOC1 (Homo sapiens (Human), UniProt P19801); test: AOC1 biochemical assay (Amplex Red); settings: read-out: AOC1 IC50
Chain of AOC1 (P19801 20-751): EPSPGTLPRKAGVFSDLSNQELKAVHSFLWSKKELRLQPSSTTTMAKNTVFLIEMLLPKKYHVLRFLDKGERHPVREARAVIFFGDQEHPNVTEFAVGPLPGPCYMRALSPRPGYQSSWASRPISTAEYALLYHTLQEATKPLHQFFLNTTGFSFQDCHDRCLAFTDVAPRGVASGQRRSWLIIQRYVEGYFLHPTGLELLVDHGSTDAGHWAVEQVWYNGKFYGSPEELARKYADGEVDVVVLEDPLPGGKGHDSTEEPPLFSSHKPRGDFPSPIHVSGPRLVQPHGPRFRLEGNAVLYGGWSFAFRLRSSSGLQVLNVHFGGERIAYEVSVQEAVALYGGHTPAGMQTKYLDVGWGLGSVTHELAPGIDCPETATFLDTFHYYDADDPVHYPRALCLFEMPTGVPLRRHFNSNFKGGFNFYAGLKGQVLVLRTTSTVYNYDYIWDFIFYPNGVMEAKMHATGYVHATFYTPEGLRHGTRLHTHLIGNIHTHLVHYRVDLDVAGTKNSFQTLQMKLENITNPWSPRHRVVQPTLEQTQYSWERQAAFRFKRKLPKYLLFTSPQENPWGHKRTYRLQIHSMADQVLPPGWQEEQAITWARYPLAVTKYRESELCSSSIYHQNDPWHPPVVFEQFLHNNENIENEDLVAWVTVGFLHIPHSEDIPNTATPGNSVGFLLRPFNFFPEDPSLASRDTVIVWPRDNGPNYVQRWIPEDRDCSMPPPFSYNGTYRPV
Description: The Amplex® Red Assay (available from Thermo Fisher Scientific) provides a sensitive method for the detection of H2O2 generated during enzymatic reactions like the amine oxidation catalyzed by AOC1. The assay reagent is a colorless substrate (N-acetyl-3,7-dihydroxyphenoxazine) that reacts in a 1:1 stoichiometry with hydrogen peroxide (H2O2) to produce the fluorescent dye resorufin (7-hydroxyphenoxazin-3-one, excitation/emission maxima=570/585 nm).
An aliquot of 3 μL of the compound dilution is added to a 384 well plate (Optiplate, PS, flat bottom F, black, PERKIN ELMER, #6007270) in a DMSO concentration of 6.6%.
An AOC1 enzyme aliquot (#8297-AO-010, R&D Systems) is thawed on ice, diluted in reaction buffer and added in a volume of 7 μL to the wells to give a final assay concentration of 1 ng/well. After incubation of inhibitor and enzyme for 30 minutes at 37° C., the enzymatic reaction is started with the addition of 10 μL of Amplex® Red reaction mix (final assay concentration: 100 mM sodiumphosphate, 120 μM Amplex® Red reagent (#A22177 Molecular Probes), 1.5 U/mL Horseradish Peroxidase (#P8375 Sigma-Aldrich), 200 μM putrescine (#P7505 Sigma-Alrdich), 0.05% Pluronic F-127 (#P3000MP Sigma-Aldrich), pH 7.4, 37° C.).
After an incubation for 30 minutes at 37° C. the turnover of the substrate is determined directly (or after the addition of an excess of an amine-oxidase inhibitor) with a fluorescence reader (Ex 540 nm/Em 590 nm) like Envision 2104 Multilabel Reader (PERKIN ELMER).

Chain of AOC2 (O75106 whole entry): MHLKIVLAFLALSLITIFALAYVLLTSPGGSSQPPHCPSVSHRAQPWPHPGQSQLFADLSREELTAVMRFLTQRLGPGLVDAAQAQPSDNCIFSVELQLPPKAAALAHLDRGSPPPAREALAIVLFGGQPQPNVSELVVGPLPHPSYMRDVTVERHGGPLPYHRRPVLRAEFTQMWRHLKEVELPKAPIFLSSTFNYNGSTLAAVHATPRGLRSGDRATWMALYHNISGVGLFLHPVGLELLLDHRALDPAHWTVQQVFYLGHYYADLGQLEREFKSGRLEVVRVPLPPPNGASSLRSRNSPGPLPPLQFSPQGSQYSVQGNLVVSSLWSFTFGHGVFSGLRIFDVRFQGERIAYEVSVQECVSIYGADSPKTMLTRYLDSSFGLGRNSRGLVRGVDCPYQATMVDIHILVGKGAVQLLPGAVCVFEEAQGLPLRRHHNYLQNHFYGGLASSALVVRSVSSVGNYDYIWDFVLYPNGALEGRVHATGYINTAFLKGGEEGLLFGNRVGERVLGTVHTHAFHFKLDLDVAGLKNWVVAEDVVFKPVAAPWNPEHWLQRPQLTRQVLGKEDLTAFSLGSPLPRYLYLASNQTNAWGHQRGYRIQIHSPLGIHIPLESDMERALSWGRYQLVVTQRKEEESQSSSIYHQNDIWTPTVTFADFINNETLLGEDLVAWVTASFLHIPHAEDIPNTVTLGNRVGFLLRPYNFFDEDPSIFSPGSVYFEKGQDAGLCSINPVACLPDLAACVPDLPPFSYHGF

IC50 (AOC2): 67 nM
IC50 (human AOC3 enzyme): 24 nM
IC50 (AOC1): 1480 nM
SMILES: CC1(O)CCN(S(=O)(=O)c2ccc(OC/C(=C/F)CN)nc2)CC1 [Example 48]

Reference: US12178809B2, “Pyridinyl sulfonamide derivatives, pharmaceutical compositions and uses thereof” (Boehringer Ingelheim International GmbH, priority 2018, dated 2024)
